From patent US20200405687A1, “METHODS FOR THE TREATMENT OF INFECTION” (Corbus Pharmaceuticals, Inc., priority 2016, published 2020)

Tested on: UV-killed Escherichia coli
Experiment: Skin challenge (blister) model, intradermal UV-killed E. coli in healthy volunteers (Example 3)
Format: in vivo, humans
Method: The ability of administration of a pharmaceutical composition including ajulemic acid to treat infection was assayed in a skin challenge model. A self-resolving acute inflammatory response was triggered by the intradermal injection of UV-killed Escherichia coli into the forearm of healthy volunteers. […] This study was performed to determine whether ajulemic acid promotes the resolution of infection at the site of inflammation, thereby treating that infection.
Cells and exudates were harvested at several time points following injection of UV-killed E. coli by applying negative pressure over the inflamed site.
The study included four experimental groups (n=10 in each group): • 1) Placebo, twice daily for four days • 2) Ajulemic acid, 5 mg, twice daily for four days • 3) Ajulemic acid, 20 mg, twice daily for four days • 4) Prednisone, 15 mg daily for four days
The volunteer (healthy males, 18-50 years) were randomly allocated to one of the above three groups and orally administered the test drug for four consecutive days. On the morning of the fourth day (after intake of the first dose), experimental acute inflammation was elicited by infection with UV-killed E. coli. The drug and the placebo were provided as capsules.
UV killed E. coli (Strain: NCTC 10418, Source: Public Health England, UK) were prepared as follows. E. coli described were grown overnight in Luria Broth (Sigma) at 37° C. The next morning, the bacteria were washed twice in sterile PBS (2500 g, 20 min, 4° C.) and resuspended in a sterile petri dish.
Bacteria were then killed by exposure to an ultraviolet light (UV) source (302 nm, ChemiDoc, trans-UV mode; Bio-Rad laboratories) for 60 min and then washed again in sterile saline. Bacterial counts were determined by optical density (OD600=0.365 equates to […] E. coli/ml). UVKEc were resuspended in a volume of sterile saline to obtain the count of 1.5×10^8/ml, aliquoted into sterile eppendorf tubes and then frozen at −80° C. until used for injections.
After disinfecting and shaving the skin, 1.5×10^7 UVKEc in 100 μl saline were injected intradermally into a marked site on the volar aspect of each forearm. To characterize the treatment of infection using ajulemic acid, each forearm was allotted to one of the predefined time-points namely 4, 8, 14, 24, 48 or 72 hours (h). Thus the effects of intradermal injection of UVKEc were allowed to progress for the duration of the time-point after which a suction blister was raised over the marked injection site, and then aspirated immediately. In summary, volunteer had two injection sites, one on each forearm, and contributed to two time points. On a separate group of volunteers, blister was raised on the naïve skin and treated as the baseline time point. Study time-points were discussed with volunteers before consenting.
Laser Doppler Imager (moor LDI-HIR, Moor Instruments Ltd, Axminster, Devon, UK) was used to quantify the blood flow at the site of infection. At predefined time points after injection of UVKEc, the forearm was placed under the scanner at a fixed distance to scan a fixed area. The scanner emits a laser beam, a portion of which is scattered by red blood cells present at the inflamed area. The scattering causes a change in frequency of the reflected light which is then detected by a photo detector. The velocity and concentration of red blood cells at the site directly affect the Doppler frequency shifts and account for the signal strength measured in arbitrary perfusion units. […] The total blood flow (measured in perfusion units) was calculated as product of number of valid pixels above background signal (Cut-off=300 perfusion units) and the mean blood flow signal over the valid pixels 11, 12.
To obtain the exudate from the site of infection, a 10 mm diameter suction blister was induced directly over the site of injection. […]

C[C@]12C=CC(=O)C=C1CC[C@@H]1[C@@H]2C(=O)C[C@@]2(C)[C@H]1CC[C@]2(O)C(=O)CO [prednisone, reference compound]
rise in C-reactive protein (CRP) levels in serum (after UVKEc triggered acute inflammation, multiple time points): does appear to inhibit the rise in CRP | infiltration of neutrophils at the site of inflammation (blister exudate) (ajulemic acid 5 mg or 20 mg BID, prednisone 15 mg daily, 4 h and 10 h, relative to placebo): decrease in the infiltration of neutrophils | levels of endotoxin at the site of injection (ajulemic acid 5 mg or 20 mg BID, prednisone 15 mg daily, 4 hr and 10 hr, limulus amoebocyte lysate test): appears to increase the levels of endotoxin | bacterial clearance (prednisone 15 mg daily, four days): does not increase bacterial clearance and may slow the rate of bacterial clearance
